Reference: patent US6525001B1, “Substituted pyrimidine and pyridine herbicides” (Mid-American Commercialization Corporation, priority 1997, dated 2003)

Key:
Assay in all cases: Test B pre-/postemergence
Assay type in all cases: in vivo
Design in all cases: key: 0 is no effect; 10 is complete control
[1] = system: crabgrass (Digitaria sanguinalis)
Procedure, shortened: (§1)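 Scored visually 0 (none) to 10 (complete control) against untreated plants after twelve to sixteen greenhouse days. Test chemicals, formulated in surfactant-containing non-phytotoxic solvent, applied to soil after planting and, separately, onto 1- to 4-leaf (2–18 cm) plants.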

[2] = system: giant foxtail (Setaria faberii)
Procedure, shortened: as §1

[3] = system: bedstraw (Galium aparine)
Procedure, shortened: as §1

[4] = system: cocklebur (Xanthium strumarium)
Procedure, shortened: as §1

[5] = system: wheat (Triticum aestivum)
Procedure, shortened: as §1

[6] = system: purple nutsedge (Cyperus rotundus)
Procedure, shortened: as §1

[7] = system: rape (Brassica napus)
Procedure, shortened: as §1

[8] = system: wild oat (Avena fatua)
Procedure, shortened: as §1

[9] = system: momingglory (Ipomoea hederacea)
Procedure, shortened: as §1

[10] = system: sugar beet (Beta vulgaris)
Procedure, shortened: as §1

[11] = system: soybean (Glycine max)
Procedure, shortened: as §1

[12] = system: pigweed (Amaranthus retroflexus)
Procedure, shortened: as §1

[13] = system: corn (Zea mays)
Procedure, shortened: as §1

[14] = system: velvetleaf (Abutilon theophrasti)
Procedure, shortened: as §1

What does the source list for `Cc1cnc(-n2ccc(C(F)(F)F)n2)nc1Cn1ccc(C(F)(F)F)n1` [Compound 52]?
Plant response rating, Crabgrass ([1]; Rate 62 g/ha, Postemergence): 6; Crabgrass plant response rating ([1]; Rate 62 g/ha, Preemergence): 9; Crabgrass plant response rating ([1]; Rate 125 g/ha, Postemergence): 8; Plant response rating, Crabgrass ([1]; Rate 125 g/ha, Preemergence): 10; Plant response rating, Crabgrass ([1]; Rate 250 g/ha, Postemergence): 9; Plant response rating, Crabgrass ([1]; Rate 250 g/ha, Preemergence): 10; Plant response rating, Crabgrass ([1]; Rate 500 g/ha, Postemergence): 9; Plant response rating, Crabgrass ([1]; Rate 500 g/ha, Preemergence): 10; Plant response rating, Giant foxtail ([2]; Rate 62 g/ha, Postemergence): 7; Giant foxtail plant response rating ([2]; Rate 62 g/ha, Preemergence): 9; Giant foxtail plant response rating ([2]; Rate 125 g/ha, Postemergence): 8; Plant response rating, Giant foxtail ([2]; Rate 125 g/ha, Preemergence): 9; Plant response rating, Giant foxtail ([2]; Rate 250 g/ha, Postemergence): 9; Plant response rating, Giant foxtail ([2]; Rate 250 g/ha, Preemergence): 10; Plant response rating, Giant foxtail ([2]; Rate 500 g/ha, Postemergence): 9; Plant response rating, Giant foxtail ([2]; Rate 500 g/ha, Preemergence): 10; Plant response rating, Bedstraw ([3]; Rate 62 g/ha, Postemergence): 9; Bedstraw plant response rating ([3]; Rate 62 g/ha, Preemergence): 7; Bedstraw plant response rating ([3]; Rate 125 g/ha, Postemergence): 10; Plant response rating, Bedstraw ([3]; Rate 125 g/ha, Preemergence): 8; Plant response rating, Bedstraw ([3]; Rate 250 g/ha, Postemergence): 10; Plant response rating, Bedstraw ([3]; Rate 250 g/ha, Preemergence): 9; Plant response rating, Bedstraw ([3]; Rate 500 g/ha, Postemergence): 10; Plant response rating, Bedstraw ([3]; Rate 500 g/ha, Preemergence): 10; Plant response rating, Cocklebur ([4]; Rate 62 g/ha, Postemergence): 8; Cocklebur plant response rating ([4]; Rate 62 g/ha, Preemergence): 1; Cocklebur plant response rating ([4]; Rate 125 g/ha, Postemergence): 8; Plant response rating, Cocklebur ([4]; Rate 250 g/ha, Postemergence): 9; Plant response rating, Cocklebur ([4]; Rate 250 g/ha, Preemergence): 7; Plant response rating, Cocklebur ([4]; Rate 500 g/ha, Postemergence): 9; Plant response rating, Cocklebur ([4]; Rate 500 g/ha, Preemergence): 10; Wheat plant response rating ([5]; Rate 62 g/ha, Postemergence): 4; Wheat plant response rating ([5]; Rate 62 g/ha, Preemergence): 2; Wheat plant response rating ([5]; Rate 125 g/ha, Postemergence): 7; Plant response rating, Wheat ([5]; Rate 125 g/ha, Preemergence): 2; Plant response rating, Wheat ([5]; Rate 250 g/ha, Postemergence): 7; Plant response rating, Wheat ([5]; Rate 250 g/ha, Preemergence): 3; Plant response rating, Wheat ([5]; Rate 500 g/ha, Postemergence): 8; Plant response rating, Wheat ([5]; Rate 500 g/ha, Preemergence): 6; Plant response rating, Nutsedge ([6]; Rate 62 g/ha, Postemergence): 1; Nutsedge plant response rating ([6]; Rate 62 g/ha, Preemergence): 0; Nutsedge plant response rating ([6]; Rate 125 g/ha, Postemergence): 3; Plant response rating, Nutsedge ([6]; Rate 500 g/ha, Postemergence): 7; Plant response rating, Nutsedge ([6]; Rate 500 g/ha, Preemergence): 1; Plant response rating, Rape ([7]; Rate 62 g/ha, Postemergence): 9; Rape plant response rating ([7]; Rate 62 g/ha, Preemergence): 9; Rape plant response rating ([7]; Rate 125 g/ha, Postemergence): 9; Plant response rating, Rape ([7]; Rate 125 g/ha, Preemergence): 10; Plant response rating, Rape ([7]; Rate 250 g/ha, Postemergence): 9; Plant response rating, Rape ([7]; Rate 250 g/ha, Preemergence): 10; Plant response rating, Rape ([7]; Rate 500 g/ha, Postemergence): 10; Plant response rating, Rape ([7]; Rate 500 g/ha, Preemergence): 10; Wild oats plant response rating ([8]; Rate 62 g/ha, Postemergence): 6; Wild oats plant response rating ([8]; Rate 62 g/ha, Preemergence): 3; Wild oats plant response rating ([8]; Rate 125 g/ha, Postemergence): 8; Plant response rating, Wild oats ([8]; Rate 125 g/ha, Preemergence): 5; Plant response rating, Wild oats ([8]; Rate 250 g/ha, Postemergence): 8; Plant response rating, Wild oats ([8]; Rate 250 g/ha, Preemergence): 9; Plant response rating, Wild oats ([8]; Rate 500 g/ha, Postemergence): 9; Plant response rating, Wild oats ([8]; Rate 500 g/ha, Preemergence): 10; Plant response rating, Morningglory ([9]; Rate 62 g/ha, Postemergence): 10; Morningglory plant response rating ([9]; Rate 62 g/ha, Preemergence): 9; Morningglory plant response rating ([9]; Rate 125 g/ha, Postemergence): 10; Plant response rating, Morningglory ([9]; Rate 125 g/ha, Preemergence): 10; Plant response rating, Morningglory ([9]; Rate 250 g/ha, Postemergence): 10; Plant response rating, Morningglory ([9]; Rate 250 g/ha, Preemergence): 10; Plant response rating, Morningglory ([9]; Rate 500 g/ha, Postemergence): 10; Plant response rating, Morningglory ([9]; Rate 500 g/ha, Preemergence): 10; Plant response rating, Sugarbeets ([10]; Rate 62 g/ha, Postemergence): 9; Sugarbeets plant response rating ([10]; Rate 62 g/ha, Preemergence): 10; Sugarbeets plant response rating ([10]; Rate 125 g/ha, Postemergence): 10; Plant response rating, Sugarbeets ([10]; Rate 125 g/ha, Preemergence): 10; Plant response rating, Sugarbeets ([10]; Rate 250 g/ha, Postemergence): 10; Plant response rating, Sugarbeets ([10]; Rate 250 g/ha, Preemergence): 10; Plant response rating, Sugarbeets ([10]; Rate 500 g/ha, Postemergence): 10; Plant response rating, Sugarbeets ([10]; Rate 500 g/ha, Preemergence): 10; Plant response rating, Soybean ([11]; Rate 62 g/ha, Postemergence): 9; Soybean plant response rating ([11]; Rate 62 g/ha, Preemergence): 4; Soybean plant response rating ([11]; Rate 125 g/ha, Postemergence): 9; Plant response rating, Soybean ([11]; Rate 125 g/ha, Preemergence): 7; Plant response rating, Soybean ([11]; Rate 250 g/ha, Postemergence): 9; Plant response rating, Soybean ([11]; Rate 250 g/ha, Preemergence): 8; Plant response rating, Soybean ([11]; Rate 500 g/ha, Postemergence): 9; Plant response rating, Soybean ([11]; Rate 500 g/ha, Preemergence): 9; Plant response rating, Redroot pigweed ([12]; Rate 62 g/ha, Postemergence): 9; Redroot pigweed plant response rating ([12]; Rate 62 g/ha, Preemergence): 10; Redroot pigweed plant response rating ([12]; Rate 125 g/ha, Postemergence): 10; Plant response rating, Redroot pigweed ([12]; Rate 125 g/ha, Preemergence): 10; Plant response rating, Redroot pigweed ([12]; Rate 250 g/ha, Postemergence): 10; Plant response rating, Redroot pigweed ([12]; Rate 250 g/ha, Preemergence): 10; Plant response rating, Redroot pigweed ([12]; Rate 500 g/ha, Postemergence): 10; Plant response rating, Redroot pigweed ([12]; Rate 500 g/ha, Preemergence): 10; Plant response rating, Corn ([13]; Rate 62 g/ha, Postemergence): 4; Corn plant response rating ([13]; Rate 62 g/ha, Preemergence): 3; Corn plant response rating ([13]; Rate 125 g/ha, Postemergence): 5; Plant response rating, Corn ([13]; Rate 125 g/ha, Preemergence): 3; Plant response rating, Corn ([13]; Rate 250 g/ha, Postemergence): 6; Plant response rating, Corn ([13]; Rate 250 g/ha, Preemergence): 7; Plant response rating, Corn ([13]; Rate 500 g/ha, Postemergence): 7; Plant response rating, Corn ([13]; Rate 500 g/ha, Preemergence): 8; Plant response rating, Velvetleaf ([14]; Rate 62 g/ha, Postemergence): 8; Velvetleaf plant response rating ([14]; Rate 62 g/ha, Preemergence): 10; Velvetleaf plant response rating ([14]; Rate 125 g/ha, Postemergence): 8; Plant response rating, Velvetleaf ([14]; Rate 125 g/ha, Preemergence): 10; Plant response rating, Velvetleaf ([14]; Rate 250 g/ha, Postemergence): 8; Plant response rating, Velvetleaf ([14]; Rate 250 g/ha, Preemergence): 10; Plant response rating, Velvetleaf ([14]; Rate 500 g/ha, Postemergence): 9; Plant response rating, Velvetleaf ([14]; Rate 500 g/ha, Preemergence): 10
